This passage reports IC50 results from patent US20260146035A1, “FUSED BICYCLIC COMPOUNDS AND THEIR USE AS MER AND AXL INHIBITORS” (DONG-A ST CO., LTD., priority 2022, published 2026).

SMILES strings stand for the structures.

One experiment deals with T1, human MER (528-end) (Homo sapiens, UniProt Q12866).
T1 construct: human MER (528-end); purchased Camnabio, Japan
T1 sequence (Q12866 528-999 limits assumed): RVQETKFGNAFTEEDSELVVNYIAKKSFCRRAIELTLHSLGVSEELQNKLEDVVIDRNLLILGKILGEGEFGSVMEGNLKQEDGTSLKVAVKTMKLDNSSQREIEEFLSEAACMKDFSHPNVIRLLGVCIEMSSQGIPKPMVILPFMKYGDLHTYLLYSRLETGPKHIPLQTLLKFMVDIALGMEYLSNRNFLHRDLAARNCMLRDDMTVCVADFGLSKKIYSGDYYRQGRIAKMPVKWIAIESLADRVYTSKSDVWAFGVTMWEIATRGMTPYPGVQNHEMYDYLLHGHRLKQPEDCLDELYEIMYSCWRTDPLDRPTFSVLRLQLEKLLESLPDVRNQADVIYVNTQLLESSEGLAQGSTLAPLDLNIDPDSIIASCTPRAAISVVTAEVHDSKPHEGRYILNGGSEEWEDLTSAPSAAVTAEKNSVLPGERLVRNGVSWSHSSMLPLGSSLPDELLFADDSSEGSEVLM
The experiment can be described thus: HTRF kinase activity biochemical assay, MER. Conditions: 10 μM ATP, 30 minutes pre-incubation; read-out: HTRF MERTK IC50.

A further experiment has as its target T2, human AXL (473-end) (Homo sapiens, UniProt P30530).
T2 construct: human AXL (473-end); purchased SignalChem, Canada
T2 sequence (P30530 473-894 limits assumed): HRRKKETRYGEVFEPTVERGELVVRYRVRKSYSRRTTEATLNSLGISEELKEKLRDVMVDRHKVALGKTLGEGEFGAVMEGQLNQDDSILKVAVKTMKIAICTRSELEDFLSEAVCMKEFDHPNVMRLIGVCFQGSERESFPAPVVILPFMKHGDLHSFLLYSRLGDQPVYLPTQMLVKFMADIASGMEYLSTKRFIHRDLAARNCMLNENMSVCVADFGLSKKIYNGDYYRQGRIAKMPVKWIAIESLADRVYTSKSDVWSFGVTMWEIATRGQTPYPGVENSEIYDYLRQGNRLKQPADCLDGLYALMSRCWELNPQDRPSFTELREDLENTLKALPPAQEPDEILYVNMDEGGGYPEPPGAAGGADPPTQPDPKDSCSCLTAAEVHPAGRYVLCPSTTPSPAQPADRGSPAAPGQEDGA
As to the kind of experiment: HTRF kinase activity biochemical assay, AXL. Conditions: 10 μM ATP, 30 minutes pre-incubation.

A further experiment deals with T3, human TYRO3 (455-end) (Homo sapiens, UniProt Q06418).
T3 construct: TYRO3 (455-end); purchased SignalChem, Canada
T3 sequence (Q06418 455-890 limits assumed): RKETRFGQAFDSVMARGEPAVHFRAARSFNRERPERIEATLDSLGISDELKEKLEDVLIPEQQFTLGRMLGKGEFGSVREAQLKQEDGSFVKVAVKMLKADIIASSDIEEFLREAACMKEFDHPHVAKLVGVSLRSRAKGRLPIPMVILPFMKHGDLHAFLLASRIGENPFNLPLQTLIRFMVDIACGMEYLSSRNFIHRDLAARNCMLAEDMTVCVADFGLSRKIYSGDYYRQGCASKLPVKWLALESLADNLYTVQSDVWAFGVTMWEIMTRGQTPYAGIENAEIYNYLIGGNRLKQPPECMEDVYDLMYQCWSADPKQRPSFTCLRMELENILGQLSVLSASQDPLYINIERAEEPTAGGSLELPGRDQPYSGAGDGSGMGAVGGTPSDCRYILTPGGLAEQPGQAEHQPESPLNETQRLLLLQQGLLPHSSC
The experiment can be described thus: HTRF kinase activity biochemical assay, TYRO3. The conditions noted are these: 10 μM ATP, 30 minutes pre-incubation; read-out: HTRF TYRO IC50. On the technique in general: In TR-FRET formats the signal depends on donor and acceptor labels being close together.

Regarding `Cn1cc(-c2cnc(N)c(C(=O)N[C@H]3CCC[C@@H]3OCc3ccc(-c4ccc5c(c4)CCCN5C4CCN(CCO)CC4)cc3)c2)cn1` [Example 112, 2-amino-N-{(1S,2S)-2-[(4-{1-[1-(2-hydroxyethyl)piperidin-4-yl]-1,2,3,4-tetrahydroquinolin-6-yl}phenyl)methoxy]cyclopentyl}-5-(1-methyl-1H-pyrazol-4-yl)pyridine-3-carboxamide], the IC50 was < 0.01 µM on human MER (528-end), < 0.01 µM on human AXL (473-end) and 0.01 to 0.1 µM on human TYRO3 (455-end).
As for `Cn1cc(-c2cnc(N)c(C(=O)N[C@H]3CCC[C@@H]3OCc3ccc(-c4ccc5c(n4)C(C)(C)CN5C4CCN(CCO)CC4)cc3)c2)cn1` [Example 113, 2-amino-N-{(1S,2S)-2-[(4-{1-[1-(2-hydroxyethyl)piperidin-4-yl]-3,3-dimethyl-2,3-dihydro-1H-pyrrolo[3,2-b]pyridin-5-yl}phenyl)methoxy]cyclopentyl}-5-(1-methyl-1H-pyrazol-4-yl)pyridine-3-carboxamide], the IC50 was < 0.01 µM on human MER (528-end), 0.01 to 0.1 µM at human AXL (473-end) and 0.1 to 1 µM at human TYRO3 (455-end).
As to `Cn1cc(-c2cnc(N)c(C(=O)N[C@H]3CCC[C@@H]3OCc3ccc(-c4ccc5c(c4)C(C)(C)CCN5C4CCN(CCO)CC4)cc3)c2)cn1` [Example 114, 2-amino-N-{(1S,2S)-2-[(4-{1-[1-(2-hydroxyethyl)piperidin-4-yl]-4,4-dimethyl-1,2,3,4-tetrahydroquinolin-6-yl}phenyl)methoxy]cyclopentyl}-5-(1-methyl-1H-pyrazol-4-yl)pyridine-3-carboxamide], the IC50 at human MER (528-end) was < 0.01 µM; against human AXL (473-end), < 0.01 µM; at human TYRO3 (455-end), 0.01 to 0.1 µM.
For the molecule `CN1CCN([C@H]2CCc3cc(-c4ccc(CO[C@H]5CCC[C@@H]5NC(=O)c5cc(-c6ccn(C)c(=O)c6)cnc5N)cc4)ccc32)CC1` [Example 115, 6-amino-1′-methyl-N-[(1S,2S)-2-({4-[(1S)-1-(4-methylpiperazin-1-yl)-2,3-dihydro-1H-inden-5-yl]phenyl}methoxy)cyclopentyl]-2′-oxo-1′,2′-dihydro[3,4′-bipyridine]-5-carboxamide], the IC50 at human MER (528-end) was < 0.01 µM; at human AXL (473-end) it was < 0.01 µM; on human TYRO3 (455-end), 0.1 to 1 µM.
As for `CN1CCN([C@H]2CCc3cc(-c4ccc(CO[C@H]5CCC[C@@H]5NC(=O)c5cc(-c6cccnc6F)cnc5N)cc4)ccc32)CC1` [Example 116, 6-amino-2′-fluoro-N-[(1S,2S)-2-({4-[(1S)-1-(4-methylpiperazin-1-yl)-2,3-dihydro-1H-inden-5-yl]phenyl}methoxy)cyclopentyl][3,3′-bipyridine]-5-carboxamide], the results for the IC50 on human MER (528-end), against human AXL (473-end) and on human TYRO3 (455-end) were < 0.01 µM, < 0.01 µM and 0.1 to 1 µM, respectively.
In the case of `Nc1ncc(-c2ccc(F)nc2)cc1C(=O)N[C@H]1CCC[C@@H]1OCc1ccc(-c2ccc3c(c2)CC[C@H]3N2CCN3C[C@H](O)C[C@H]3C2)cc1` [Example 118, 6-amino-6′-fluoro-N-{(1S,2S)-2-[(4-{(1R)-1-[(7R,8aS)-7-hydroxyhexahydropyrrolo[1,2-a]pyrazin-2 (1H)-yl]-2,3-dihydro-1H-inden-5-yl}phenyl)methoxy]cyclopentyl}[3,3′-bipyridine]-5-carboxamide], the IC50 was < 0.01 µM on human MER (528-end), 0.01 to 0.1 µM on human AXL (473-end) and > 1 µM at human TYRO3 (455-end).
The corresponding values for `CC1(C)CC(N2CCN(CCO)CC2)c2ccc(-c3ccc(CO[C@H]4CCC[C@@H]4NC(=O)c4cc(-c5cccnc5F)cnc4N)cc3)cc21` (stereo partly drawn) [Example 119, 6-amino-2′-fluoro-N-{(1S,2S)-2-[(4-{1-[4-(2-hydroxyethyl)piperazin-1-yl]-3,3-dimethyl-2,3-dihydro-1H-inden-5-yl}phenyl)methoxy]cyclopentyl}[3,3′-bipyridine]-5-carboxamide] are < 0.01 µM, < 0.01 µM and 0.01 to 0.1 µM.
The corresponding values for `Cn1cc(-c2cnc(N)c(C(=O)N[C@H]3CCC[C@@H]3OCc3ccc(-c4ccc5c(c4)OCCC5N4CCN(CCO)CC4)cc3)c2)cn1` (stereo partly drawn) [Example 121, 2-amino-N-{(1S,2S)-2-[(4-{4-[4-(2-hydroxyethyl)piperazin-1-yl]-3,4-dihydro-2H-1-benzopyran-7-yl}phenyl)methoxy]cyclopentyl}-5-(1-methyl-1H-pyrazol-4-yl)pyridine-3-carboxamide] are < 0.01 µM, < 0.01 µM and 0.01 to 0.1 µM.
The corresponding values for `Cn1cc(-c2cnc(N)c(C(=O)N[C@H]3CCC[C@@H]3OCc3ccc(-c4ccc5c(c4)CCCC5N4CCNCC4)cc3)c2)cn1` (stereo partly drawn) [Example 122, 2-amino-5-(1-methyl-1H-pyrazol-4-yl)-N-[(1S,2S)-2-({4-[5-(piperazin-1-yl)-5,6,7,8-tetrahydronaphthalen-2-yl]phenyl}methoxy)cyclopentyl]pyridine-3-carboxamide] are < 0.01 µM, < 0.01 µM and 0.01 to 0.1 µM.
Regarding `Nc1ncc(-c2cncc(F)c2)cc1C(=O)N[C@H]1CCC[C@@H]1OCc1ccc(-c2ccc3c(c2)CCCC3N2CCN(CCO)CC2)cc1` (stereo partly drawn) [Example 123, 6-amino-5′-fluoro-N-{(1S,2S)-2-[(4-{5-[4-(2-hydroxyethyl)piperazin-1-yl]-5,6,7,8-tetrahydronaphthalen-2-yl}phenyl)methoxy]cyclopentyl}[3,3′-bipyridine]-5-carboxamide], the IC50 on human MER (528-end) was < 0.01 µM; on human AXL (473-end) it was < 0.01 µM; at human TYRO3 (455-end), 0.01 to 0.1 µM.
For the molecule `Nc1ncc(C(F)(F)F)cc1C(=O)N[C@H]1CCC[C@@H]1OCc1ccc(-c2ccc3c(c2)CCCC3N2CCN(CCO)CC2)cc1` (stereo partly drawn) [Example 124, 2-amino-N-{(1S,2S)-2-[(4-{5-[4-(2-hydroxyethyl)piperazin-1-yl]-5,6,7,8-tetrahydronaphthalen-2-yl}phenyl)methoxy]cyclopentyl}-5-(trifluoromethyl)pyridine-3-carboxamide], the half-maximal inhibitory concentration (IC50) was < 0.01 µM at human MER (528-end), < 0.01 µM against human AXL (473-end) and 0.1 to 1 µM at human TYRO3 (455-end).
Turning to `CN(CCC(O)CO)C1CCc2cc(-c3ccc(CO[C@H]4CCC[C@@H]4NC(=O)c4cc(-c5cnn(C)c5)cnc4N)cc3)ccc21` (stereo partly drawn) [Example 125, 2-amino-N-{(1S,2S)-2-[(4-{1-[(3,4-dihydroxybutyl)(methyl)amino]-2,3-dihydro-1H-inden-5-yl}phenyl)methoxy]cyclopentyl}-5-(1-methyl-1H-pyrazol-4-yl)pyridine-3-carboxamide], the IC50 on human MER (528-end) was 0.01 to 0.1 µM; at human AXL (473-end), 0.01 to 0.1 µM; on human TYRO3 (455-end), > 1 µM.
In the case of `CN(CCC(O)CO)C1CCc2cc(-c3ccc(CO[C@H]4CCC[C@@H]4NC(=O)c4cc(-c5ccc(F)nc5)cnc4N)cc3)ccc21` (stereo partly drawn) [Example 126, 6-amino-N-{(1S,2S)-2-[(4-{1-[(3,4-dihydroxybutyl)(methyl)amino]-2,3-dihydro-1H-inden-5-yl}phenyl)methoxy]cyclopentyl}-6′-fluoro[3,3′-bipyridine]-5-carboxamide], the IC50 is 0.01 to 0.1 µM on human MER (528-end), 0.1 to 1 µM on human AXL (473-end) and > 1 µM on human TYRO3 (455-end).
The corresponding values for `CN(CCC(O)CO)C1CCc2cc(-c3ccc(CO[C@H]4CCC[C@@H]4NC(=O)c4cc(-c5cccnc5F)cnc4N)cc3)ccc21` (stereo partly drawn) [Example 127, 6-amino-N-{(1S,2S)-2-[(4-{1-[(3,4-dihydroxybutyl)(methyl)amino]-2,3-dihydro-1H-inden-5-yl}phenyl)methoxy]cyclopentyl}-2′-fluoro[3,3′-bipyridine]-5-carboxamide] are 0.01 to 0.1 µM, 0.1 to 1 µM and > 1 µM.

Broadly, the IC50 is the midpoint of a concentration-inhibition curve.
